Test results reported in patent US9872871B2, “Compositions for use in restoring muscle glycogen and/or muscle mass” (Aarhus Universitet, priority 2013, dated 2018).
“Also recorded” adds a separate entry of the source.

Experiments:
[1] = type II diabetic patients, cited from earlier work
[2] = tested on: skeletal muscle glucose transport system; conditions: soleus and epitrochlearis muscles of lean and obese Zucker rats; dose-dependent; cited from earlier work
[3] = tested on: muscle glycogen (vastus lateralis); test: Muscle glycogen resynthesis after glycogen depleting exercise, double blinded crossover, vastus lateralis biopsies; type: in vivo, human
Protocol: In this example, the effect is examined of a 500 mg steviol glycosides supplementation together with post-exercise oral carbohydrate (1.5 g/kg/h), versus an isocaloric carbohydrate supplementation on muscle glycogen resynthesis, following glycogen depletive exercise. Fifteen trained male cyclists performed two cycling sessions of 120 min at 75-85% Vo2-max, with the post exercise supplementation of stevioside organized in a double blinded crossover study design. Over the course of a 4 h of recovery period, muscle biopsies were obtained from the vastus lateralis immediately and 240 minutes after exercise, to measure post-recovery glycogen concentration and rate of post-exercise glycogen synthesis. In order to measure plasma glucose, insulin and glucagon, blood samples were drawn before and immediately after exercise, and at every half hour during the four hour recovery period. Results A significant increase in total glycogen concentration was seen following the 4 hour of recovery in both trials (p<0.005). […] Plasma glucose and glucagon levels also show a reduction when stevioside was supplied.
In the present study, a double blinded crossover protocol was used to examine the effect of post exercise carbohydrate ingestion supplemented with or without stevioside supplementation on muscle glycogen resynthesis. The double blinded crossover protocol was chosen to ensure a satisfactory statistical power with the relative few subjects that were included in this study. After completing a preliminary anthropometric assessment incremental and VO2-max test, each subject completed two randomized experimental trials; separate by at least seven days.
After the preliminary testing, each subject underwent two experimental trials, with the experimental supplementation randomized using a randomizing software (Research randomizer) and blinded to both subject and researchers by supplementing the stevioside concealed in capsules. […] The two experimental trials were separated by at least seven days. The subjects were instructed to refrain from any intense exercise 24 hour before both the preliminary test and the two experimental trials. […]
As illustrated the table below, the subjects arrived fasting at 8:00 o'clock a.m. in the lab and completed a glycogen depletion ride consisting of 120 minutes cycling at 75%-80% of their maximal heart rate reserve, followed by a series of five 30 seconds sprint interval at an all-out intensity interspaced with a rest period of 60 seconds. Workload and target heart rate zone was calculated for the subjects, based on the results presented in table 1, performance characteristics of the subjects. […]

[4] = lean and obese Zucker rats; 200 or 500 mg/kg by gavage; cited from earlier work
[5] = Plasma glucose, insulin and glucagon during the four hour recovery period; type: in vivo, human
Protocol: Before the subjects started the depletion ride, blood was drawn from a medial antecubital vein to establish baseline values for plasma glucose, plasma insulin and plasma glucagon concentrations. After completion of the depletion ride and 240 minutes later, a muscle biopsy was obtained from the vastus lateralis muscle by the use of a percutaneous needle biopsy technique, using the protocol described by Bergström (Bergström 1962). The biopsy sampling was performed by a trained physician with extensive experience in sterile technique. An area of anterolateral side of one thigh was disinfected with chlorhexidine, and local anesthetized with lidocaine (10 mg/ml) in the skin, subcutaneous tissue and muscle fascia. After the area was covered with a sterile hole-piece, a small incision in the skin and fascia of the leg was made with a scalpel and a tissue sample was taken with a Bergström biopsy needle with the aid of suction. The biopsy procedure was managed by Mikkel Overgaard, and assisted by Søren Lavrsen. Approx. 100 mg of muscle tissue was taken from the vastus lateralis muscle. The muscle tissue samples were weighted and immediately placed in liquid nitrogen, and then transferred to a freezer (−80° C.) for storage until analysis for determination of glycogen concentration would be made. At the same time a polyethylene catheter was placed subcutaneous into a medial antecubital vein from which blood samples were collected. 10 ml of blood were drawn for the analysis of plasma glucose and insulin, and 7.5 ml of blood was drawn for the analysis of plasma glucagon. After the first sample at 0 minutes, blood was drawn at 30, 60, 90, 120, 150, 180, 210 and 240 minutes after the subject has finished the glycogen depletion protocol. Blood samples were centrifuged before 2 ml of the plasma was pipetted into standard analyzing tubes and stored at −80° C. for later analysis.
Immediately after the muscle biopsy procedure and initial blood sampling, the subjects ingested either 500 mg of steviol glucosides, or placebo (500 mg of corn starch) Supplementation, together with 1.5 gr/body weight of liquid maltodextrine solution (Pure Power, Harre Denmark). The sequence of stevioside and placebo supplementation was randomized in a balanced order. At 60, 120 and 180 minutes after termination of the depletion ride, the subjects received another carbohydrate rich feeding (1.5 gr/body weight/hour of Carbohydrates/kg body weight/hour), in accordance with the guidelines recommended by (Ivy et al. 1988).
Blood samples were collected for the measurements for measurement of the plasma glucose, insulin and glucagon values before initiation of the glycogen depletion protocol and at 0, 30, 60, 90, 120, 150, 180, 210 and 240 minutes after the subject has finished the glycogen depletion protocol.
10 ml of blood were drawn for the analysis of plasma glucose and insulin, and 7.5 ml of blood was drawn for the analysis of plasma glucagon. All blood was drawn from the antecubital vein. For glucose and insulin the drawn blood was collected in lilthium heparinized tubes (Venosafe—plasma VF-109SHL, Terumo Europe N.V., Leuven, Belgium). For glucagon the drawn blood was collected in EDTA treated tubes (Venosafe). With all samples the tubes were turned over 10 times, to avoid coagulation, before they were centrifuged at 1500 G for 10 minutes at 5° C. using a Sigma 3-18 centrifuge (Sigma Laborzentrifugen GmbH, Osterode am Harz, Germany). 2 ml of the plasma was pipetted into standard analyzing tubes and stored at −80° C. for later analysis. After all testing sessions were finished; all blood samples were packed, according to regulations, in an icebox at […], and transported to the Diabetes laboratory 4, at Aarhus University Hospital, Tage-Hansens Gade (Aarhus, Denmark) for analysis of plasma glucose, insulin and glucagon concentration. […]

[6] = type 2 diabetic subjects, cited from earlier work
isolated mouse islets = conditions: effect faded at normal to low glucose; cited from earlier work
[7] = Wistar rats, 20 mg/kg orally daily for 5 days, cited from earlier work

In the case of `C=C1C[C@@]23CC[C@H]4[C@@](C)(CCC[C@@]4(C)C(=O)O[C@@H]4O[C@H](CO)[C@@H](O)[C@H](O)[C@H]4O)[C@@H]2CC[C@]1(O[C@@H]1O[C@H](CO)[C@@H](O)[C@H](O)[C@H]1O[C@@H]1O[C@H](CO)[C@@H](O)[C@H](O)[C@H]1O)C3` [stevioside, Stevioside], the “postprandial glucagon like peptide-1 level” value ([1]; 1 g orally) is given as “significantly reduced”, the insulin response ([1]; 1 g orally, not statistically significant) is given as “tended to stimulate insulin response” and the “reduction of post prandial blood glucose response compared to placebo” value ([1]; 1 g stevioside orally with standard meal) is given as 18.5%. For the same molecule, the “insulin action on skeletal muscle glucose transport system” value [2] was “improves the insulin action”, the “increase of glycogen resynthesis rate compared to placebo” value ([3]; 4 h recovery, 500 mg orally with carbohydrate) was 35% and the “glycogen resynthesis rate (rate of glycogen repletion)” value ([3]; 4 h recovery, 500 mg steviol glycosides orally with carbohydrate 1.5 g/kg/h, mean±SE, placebo 27.96±2.6) was 37.84 ± 3.72 mmol/kg/h. For the same molecule, the muscle glycogen concentration ([3]; 240 minutes after completion of the depletion protocol, placebo 246.4±20) was 281.5±29 mmol/kg/dw, the “effect on post-exercise muscle glycogen resynthesis” value ([3]; four hour recovery period, in addition to carbohydrate, p<0.022) was “increase muscle glycogen resynthesis significantly” and the “fasting plasma glucose and insulin” value [4] was “did not significantly affect”. The “time of second plasma insulin peak concentration” value ([5]; after third CHO feeding at 120 minutes, placebo at 150) was 180 min, the “difference in plasma insulin concentration between stevioside and control (iAUC)” value ([5]; any times during the recovery period, p=0.95) was “no significant difference” and the “plasma glucagon concentration (area under the curve) compared to placebo” value ([5]; four hour recovery period) was “reduction”. The “plasma glucagon concentration (area under the curve) compared to placebo” value ([5]; four hour recovery period, listed as stevia) was “clearly reduced”, the “plasma glucose response (iAUC) compared to placebo” value ([5]; four hour recovery period, not statistically significant) was “reduction; also recorded: lower” and the “plasma insulin, mean area under the curve” value ([5]; four hour recovery period, placebo 55790±12660) was 56720±11950 ng/ml*4 hours. The “suppression of postprandial blood glucose level” value ([6]; 1 g stevioside with standard meal vs maize starch) was 18%, the circulating insulin levels ([6]; 1 g stevioside with standard meal) was “tended to be increased” and the insulin release (isolated mouse islets) was “glucose-dependent insulin release”. The “glucose levels before the glucose test compared to control group” value [7] was “no significant decrease” and the “glucose levels under increased loading during the glucose test” value ([7]; stevioside alone) was “conferred beneficial effects”.
